Legend:
[1] = Cell viability by MTS bioreduction; assay type: cell-based, Human; settings: human, THP-1 monocytic cells (IFNα-primed, SAC-stimulated), THP-1 cells, survival vs compound-free control, read-out: CC50 (μM) Cell Toxicity
Method: (§1) Human monocytic THP-1 cells were primed by IFNα (100 U/mL) for 22 h and then stimulated with 0.025% SAC in the presence of different concentrations of a test compound. The test compounds were prepared in DMSO and the final DMSO concentration was adjusted to 0.25% in all cell cultures, including the compound-free control. Supernatants from the cultures were removed after 24 h, and assayed for productions of IL-12 and […]. Cell viability was assessed using the bioreduction of MTS [3-(4,5-dimethylthiazol-2-yl)-5-(3-carboxymethoxyphenyl)-2-(4-sulfophenyl)-2H-tetrazolium] (Promega, Madison, Wis.), with cell survival estimated as the ratio of the absorbance in compound-treated groups versus compound-free control. Human IL-12 p70 (heterodimer) and TNFα were assayed using ELISA kit from Endogen (Cambridge, Mass.), according to the manufacturer's instructions.

[2] = test system: TNFα; experiment: TNFα production in IFN-primed, SAC-stimulated THP-1 cells (ELISA); assay type: cell-based, Human; settings: THP-1 cells primed by IFNα (100 U/mL) 22 h, stimulated with 0.025% SAC, supernatants after 24 h
Method: as §1

[3] = test system: Human IL-12 p70 (heterodimer); experiment: IL-12 production in IFN-primed, SAC-stimulated THP-1 cells (ELISA); assay type: cell-based; settings: THP-1 cells primed by IFNα (100 U/mL) 22 h, stimulated with 0.025% SAC, supernatants after 24 h
Method: as §1

[4] = test system: Human monocytic THP-1 cells; experiment: Cell viability by MTS bioreduction; assay type: cell-based; settings: survival vs compound-free control, read-out: CC50 (μM) Cell Toxicity
Method: as §1

SMILES	IC50 ([2]; Homo sapiens) [µM]	IC50 ([3]; Homo sapiens) [µM]	IC50 [3] [µM]	IC50 [2] [µM]	CC50 at 24 h [1] [µM]	CC50 [4] [µM]
O=C1CC(=O)O[C@@H](CCc2ccccc2)C1 [Compound 1, S-(+)-6-Phenethyl-dihydro-pyran-2,4-dione]	40	30	–	–	> 100	–
O=C1CC(=O)O[C@@H](CCc2ccccc2F)C1 [Compound 3, (S)-6-[2-(2-fluoro-phenyl)-ethyl]-dihydro-pyran-2,4-dione]	40	70	–	–	–	–
COC1=CC(=O)O[C@@H](CCc2ccccc2F)C1 [Compound 7, (S)-6-[2-(2-Fluoro-phenyl)-ethyl]-4-methoxy-5,6-dihydro-pyran-2-one]	62	38	–	–	> 100	–
COC1=CC(=O)O[C@@H](CCc2cccc(F)c2)C1 [Compound 8, (S)-6-[2-(3-Fluoro-phenyl)-ethyl]-4-methoxy-5,6-dihydro-pyran-2-one]	70	65	–	–	> 100	–
COC1=CC(=O)O[C@@H](CCc2ccc(F)cc2)C1 [Compound 9, (S)-6-[2-(4-Fluoro-phenyl)-ethyl]-4-methoxy-5,6-dihydro-pyran-2-one]	100	86	–	–	> 100	–
COC1=CC(=O)OC(C=Cc2ccc(C#N)cc2)C1 (stereo not shown) [Compound 13, 6-[2-(4-cyano-phenyl)-vinyl]-4-methoxy-5,6-dihydro-pyan-2-one]	–	–	80	–	–	> 100
COC(=O)c1ccc(CCC2CC(OC)=CC(=O)O2)cc1 (stereo not shown) [Compound 16, 4-[2-(4-methoxy-6-oxo-3,6-dihydro-2H-pyran-2-yl)-ethyl]-benzoic acid methyl ester]	80	80	–	–	> 100	–
COC1=CC(=O)OC(CCc2ccc(F)c(F)c2)C1 (stereo not shown) [Compound 17, 6-[2-(3,4-difluoro-phenyl)-ethyl]-4-methoxy-5,6-dihydro-pyan-2-one]	–	–	80	80	–	> 100
COC1=CC(=O)OC(CCc2ccc(F)cc2)C1 (stereo not shown) [Compound 18, 6-[2-(4-fluoro-phenyl)-ethyl]-4-methoxy-5,6-dihydro-pyan-2-one]	–	–	80	70	–	> 100
CCOC1=CC(=O)O[C@@H](CCc2ccccc2)C1 [Compound 20, (S)-4-Ethoxy-6-phenethyl-5,6-dihydro-pyran-2-one]	100	80	–	–	> 100	–

Now from value to molecule, other results behind:

IC50 ([2]; Homo sapiens) [µM]	IC50 ([3]; Homo sapiens) [µM]	IC50 [3] [µM]	IC50 [2] [µM]	SMILES	CC50 at 24 h [1] [µM]	CC50 [4] [µM]
30	30	–	–	O=C1CC(=O)O[C@@H](CCc2ccc(F)cc2)C1 [Compound 2, 6-[2-(4-Fluoro-phenyl)-ethyl]-dihydro-pyran-2,4-dione]	> 100	–
20	40	–	–	O=C1CC(=O)O[C@@H](CCc2cccc(F)c2)C1 [Compound 4, (S)-6-[2-(3-Fluoro-phenyl)-ethyl]-dihydro-pyran-2,4-dione]	> 100	–
100	80	–	–	O=C1C=C(O)CC(/C=C/c2cccnc2)O1 (stereo not shown) [Compound 5, 6-(2-pyridin-3-yl-vinyl)-dihydro-pyran-2,4-one]	> 100	–
100	70	–	–	COC1=CC(=O)OC(CCc2ccc[nH]2)C1 (stereo not shown) [Compound 6, 4-Methoxy-6-[2-(1H-pyrrol-2-yl)-ethyl]-5,6-dihydro-pyran-2-one]	> 100	–
13	10	–	–	O=C1C=CC[C@H](CCc2ccccc2)O1 [Compound 10, (S)-6-Phenethyl-5,6-dihydro-pyran-2-one]	100	–
5	10	–	–	O=C1C=CC[C@H](CCc2cccc(F)c2)O1 [Compound 11, S-6-[2-(3-Fluoro-phenyl)-ethyl]-5,6-dihydro-pyran-2-one]	100	–
25	10	–	–	COc1cc(CC[C@H]2CC=CC(=O)O2)cc(OC)c1OC [Compound 12, S-6-[2-(3,4,5-trimethoxylphenyl)-ethyl]-5,6-dihydro-pyran-2-one]	100	–
70	70	–	–	COC1=CC(=O)OC(/C=C/c2ccc(F)c(F)c2)C1 (stereo not shown) [Compound 14, 6-[2-(3,4-difluoro-phenyl)-vinyl]-4-methoxy-5,6-dihydro-pyan-2-one]	> 100	–
60	90	–	–	COC1=CC(=O)OC(/C=C/c2ccc(F)c(F)c2F)C1 (stereo not shown) [Compound 15]	> 100	–
70	70	–	–	CC(C)OC1=CC(=O)O[C@@H](CCc2ccccc2)C1 [Compound 19, S-(+)-4-isopropoxy-6-phenethyl-5,6-dihydro-pyran-2-one]	> 100	–
80	100	–	–	COC1=CC(=O)O[C@@H](CCc2cccnc2)C1 [Compound 21, 4-Methoxy-6-(2-pyridin-3-yl-ethyl)-5,6-dihydro-pyran-2-one]	> 100	–

— US20030236302A1, “Synthetic derivatives” (priority 2002, published 2003)
